Laboratory results: paper PMC9006954, “Computer-Based Immunoinformatic Analysis to Predict Candidate T-Cell Epitopes for SARS-CoV-2 Vaccine Design” (Frontiers in Immunology, 2022)
Where no end group is shown, it is not given here.

Target: T1, HLA-A*11:01 protein (Homo sapiens, UniProt P04439, A114D/D185E/E176A/F33Y/L180Q/S129P/T187R)
T1 construct: biotin (biotinylated)
Assay: Bio-Layer Interferometry (BLI) affinity test, Octet R8
Conditions: Octet R8, SSA sensors, peptides 100-3.125 µM in PBST (PBS+0.02%Tween20+1% DMSO), balance, binding, dissociation 60 s each

Sequence | KD | Kd [µM]
SQCVNLTTR [reference compound] | Non-binding | –
KCYGVSPTK [reference compound] | – | 23.5
FSTFKCYGV [reference compound] | – | 29.1
GVSPTKLNDL [reference compound] | – | 656
